# “And” between values parts separate entries of the source, which are not always exact repeats. Equal values may be shown once.
# System: WM3248 melanoma cells, 486 antibodies
# Assay: Reverse phase protein arrays (RPPA)
# Type: cell-based, Human
# Description: Pellets were snap frozen in liquid nitrogen and shipped to MD Anderson Cancer Center core RPPA facility for RPPA analysis (Table S5). Three biological replicates for each sample were generated.
# Nomenclatures on the RPPA heatmaps: name_of_antibody.species_of_antibody.status_of_antibody. V - antibody validated; C - validation of antibody in progress; Q - antibody nonspecific; E – under evaluation; antibodies raised in M - mouse, G - goat, R - rabbit, or T - rat.
# [1] = Norm_10: replicates 1-3 and Average, relative to 0
smiles,measurement,setting,value
"CN(C)c1cccc(Nc2cc(-c3ccccc3)nc(C3CCNCC3)n2)c1 [ARN22089, N1,N1-dimethyl-N3-(6-phenyl-2-(piperidin-4-yl)pyrimidin-4-yl)benzene-1,3-diamine]",p38.MAPK.R.V Average,"Norm_10, normalized to Norm_0",0.984
same,p38.MAPK._pT180_Y182.R.V Average,"Norm_10, normalized to Norm_0",0.822
same,p38.a.M.V Average,"Norm_10, normalized to Norm_0",1.035
same,p44.42.MAPK.R.V Average,"Norm_10, normalized to Norm_0",1.129
same,p70.S6K1.R.V Average,"Norm_10, normalized to Norm_0",1.024
same,p90RSK_pT573.R.C Average,"Norm_10, normalized to Norm_0",0.999
same,PREX1.R.V normalized RPPA signal,[1],1.017 and 0.962 and 0.972
same,PTEN.R.V normalized RPPA signal,[1],1.166 and 0.849 and 0.856 and 0.957
same,PTPN12.R.V normalized RPPA signal,[1],0.749 and 0.939 and 0.909
same,PYGB.R.V normalized RPPA signal,[1],1.205 and 1.156 and 1.144
same,PYGM.M.C normalized RPPA signal,[1],0.918 and 2.001 and 1.335
same,Puma.R.C normalized RPPA signal,[1],1.060 and 1.017 and 1.055
same,Pyk2_pY402.R.C normalized RPPA signal,[1],1.111 and 0.863 and 0.946
same,RBM15.R.V normalized RPPA signal,[1],0.891 and 1.000 and 0.960 and 0.950
same,RIP3.R.C normalized RPPA signal,[1],0.942 and 0.921 and 0.948 and 0.937
same,RIP.R.C normalized RPPA signal,[1],0.780 and 1.118 and 1.150 and 1.016
same,RPA32.R.V normalized RPPA signal,[1],1.060 and 1.362 and 1.197 and 1.207
same,RPA32_pS4_S8.R.C normalized RPPA signal,[1],1.546 and 1.295 and 1.489 and 1.443
same,RRM1.R.C normalized RPPA signal,[1],0.939 and 0.806 and 0.945 and 0.897
same,RRM2.R.C normalized RPPA signal,[1],0.757 and 0.774 and 0.866
same,RSK1.R.V normalized RPPA signal,[1],1.143 and 1.201 and 1.128
same,RSK.R.C normalized RPPA signal,[1],0.838 and 1.004 and 0.972
same,Rab11.R.C normalized RPPA signal,[1],1.030 and 0.917 and 0.953
same,Rab25.R.V normalized RPPA signal,[1],1.035 and 0.882 and 0.858 and 0.925
same,Rad17_pS645.R.V normalized RPPA signal,[1],0.792 and 0.966
same,Rad23A.R.C normalized RPPA signal,[1],0.804 and 0.923 and 1.597 and 1.108
same,Rad50.R.V normalized RPPA signal,[1],1.116 and 1.111
same,Rad51.R.C normalized RPPA signal,[1],0.827 and 0.908 and 0.944 and 0.893
same,Raptor.R.V normalized RPPA signal,[1],0.845 and 0.882 and 0.940 and 0.889
same,Rb.M.Q normalized RPPA signal,[1],0.863 and 1.097 and 1.016
same,Rb_pS807_S811.R.V normalized RPPA signal,[1],0.811 and 0.958 and 0.878
same,Rheb.M.C normalized RPPA signal,[1],1.032 and 1.240 and 1.115
same,Rictor.R.C normalized RPPA signal,[1],0.988 and 0.910 and 0.945 and 0.948
same,Rictor_pT1135.R.V normalized RPPA signal,[1],0.873 and 0.950 and 0.954
same,S6.M.V normalized RPPA signal,[1],1.085 and 0.996 and 1.017
same,S6_pS235_S236.R.V normalized RPPA signal,[1],0.521 and 0.472 and 0.641 and 0.545
same,S6_pS240_S244.R.V normalized RPPA signal,[1],0.582 and 0.274 and 0.654 and 0.504
same,SCD.M.V normalized RPPA signal,[1],0.991 and 1.046
same,SDHA.R.V normalized RPPA signal,[1],0.992 and 0.940 and 0.859 and 0.930
same,SF2.R.V normalized RPPA signal,[1],0.895 and 1.050 and 0.922 and 0.956
same,SFRP1.R.V normalized RPPA signal,[1],0.808 and 0.981 and 1.003 and 0.931
same,SGK1.R.V normalized RPPA signal,[1],1.008 and 0.920 and 1.014 and 0.981
same,SGK3.R.V normalized RPPA signal,[1],0.816 and 0.987 and 0.963 and 0.922
same,SHP2.R.V normalized RPPA signal,[1],0.944 (2×) and 1.029 and 0.972
same,SHP.2_pY542.R.C normalized RPPA signal,[1],1.060 and 0.917 and 0.992 and 0.990
same,SIRPαR.V normalized RPPA signal,[1],0.835 and 1.085 and 0.937 and 0.953
same,SLC1A5.R.C normalized RPPA signal,[1],1.027
same,SOD1.M.V normalized RPPA signal,[1],0.907 and 1.127 and 1.007 and 1.014
same,SOD2.R.V normalized RPPA signal,[1],1.018 and 1.276 and 0.952 and 1.082
same,SOX7.R.V normalized RPPA signal,[1],1.145 and 1.060
same,STING.R.V normalized RPPA signal,[1],0.851 and 0.953
same,Shc_pY317.R.C normalized RPPA signal,[1],0.714 and 5.496 and 1.397 and 2.535
same,Slfn11.G.C normalized RPPA signal,[1],0.876 and 1.082 and 1.481 and 1.146
same,Smac.M.Q normalized RPPA signal,[1],0.850 and 1.137 and 0.963 and 0.983
same,Smad1.R.V normalized RPPA signal,[1],0.960 and 0.924 and 0.963
same,Smad3.R.V normalized RPPA signal,[1],1.062 and 0.979 and 1.026
same,Smad4.R.V normalized RPPA signal,[1],1.013 and 1.128 and 0.985
same,Snail.M.Q normalized RPPA signal,[1],0.664 and 0.941 and 0.860 and 0.822
same,Sox2.R.V normalized RPPA signal,[1],1.126 and 1.008 and 0.910 and 1.015
same,Sox17.R.V normalized RPPA signal,[1],0.905 and 1.111 and 1.000 and 1.005
same,Src.M.V normalized RPPA signal,[1],0.883 and 1.206 and 0.940 and 1.010
same,Src_pY416.R.V normalized RPPA signal,[1],1.030 and 0.914 and 0.902
same,Src_pY527.R.V normalized RPPA signal,[1],1.278 and 0.689 and 0.973
same,Stat1_pY701.R.V normalized RPPA signal,[1],0.995 (2×) and 1.011 and 1.000
same,Stat3.R.C normalized RPPA signal,[1],0.999 and 0.915 and 0.942
same,Stat3_pY705.R.C normalized RPPA signal,[1],1.077 and 1.148 and 1.012 and 1.079
same,Stat5a.R.V normalized RPPA signal,[1],1.155 and 0.661 and 0.766 and 0.861
same,Stathmin.1.R.V normalized RPPA signal,[1],0.870 and 1.129 and 0.982
same,Syk.M.V normalized RPPA signal,[1],0.771 and 0.940 and 1.123 and 0.945
same,Synaptophysin.R.C normalized RPPA signal,[1],0.939 and 1.003 and 0.960
same,TAZ.R.V normalized RPPA signal,[1],0.664 and 1.279 and 1.012
same,TEAD.R.C normalized RPPA signal,[1],0.761 and 0.855 and 1.077 and 0.898
same,TFAM.R.V normalized RPPA signal,[1],0.933 and 0.917 and 0.914 and 0.921
same,TFRC.R.V normalized RPPA signal,[1],0.993 and 0.819 and 0.888 and 0.900
same,TIGAR.R.V normalized RPPA signal,[1],0.948 and 0.928 and 0.972
same,TRAP1.M.V normalized RPPA signal,[1],0.886 and 1.063 and 0.996
same,TRIM24.R.C normalized RPPA signal,[1],0.955 and 1.027
same,TRIM25.R.C normalized RPPA signal,[1],0.793 and 0.863 and 1.102 and 0.919
same,TRIP13.R.V normalized RPPA signal,[1],1.018 and 1.029 and 1.031
same,Tau.M.C normalized RPPA signal,[1],1.047 and 1.298 and 0.928
same,Transglutaminase.M.V normalized RPPA signal,[1],1.016 and 1.436 and 2.172 and 1.541

# — article PMC9127750, “Structure-based design of CDC42 effector interaction inhibitors for the treatment of cancer” (Cell reports, 2022)
